Results published in patent US20260125397A1, “MK2 DEGRADERS AND USES THEREOF” (Kymera Therapeutics, Inc., priority 2023, published 2026).

The compounds below were run against T1, MK2 (Homo sapiens, UniProt P49137) (assay: MK2 degradation in human SW1353 cells (MSD, 24 h)). Conditions: read-out: MK2 MSD SW 1353 24 h Dmax %.
T1 sequence (P49137 whole entry): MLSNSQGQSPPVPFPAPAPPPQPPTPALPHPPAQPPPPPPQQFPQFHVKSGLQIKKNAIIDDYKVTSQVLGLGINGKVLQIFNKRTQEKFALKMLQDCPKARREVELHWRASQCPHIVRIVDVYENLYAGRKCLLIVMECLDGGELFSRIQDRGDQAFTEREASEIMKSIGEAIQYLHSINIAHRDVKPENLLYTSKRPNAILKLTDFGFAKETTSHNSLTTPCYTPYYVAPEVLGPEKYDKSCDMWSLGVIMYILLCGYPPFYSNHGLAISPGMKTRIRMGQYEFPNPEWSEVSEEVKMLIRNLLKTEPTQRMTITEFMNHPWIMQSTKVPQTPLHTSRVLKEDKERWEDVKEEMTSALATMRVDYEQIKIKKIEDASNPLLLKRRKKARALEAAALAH
Format: cell-based
Set-up: endogenous in cells; host or cells: SW-1353 (ATCC HTB-94)
Description: The human chondrocyte cancer cell line SW-1353 (ATCC(HTB-94)) was cultured in 96 well plates (Coming 3894) at a density of 200,000 cells per well in 100 microlitres in complete growth medium of Leibovitz's L-15 Medium (Gibco) pus 10% fetal Bovine Serum (Coming) and Penicillin/Streptomycin (SolarBio) at 37 degrees Celsius. A serial dilution of each compound (usually 3 to 5 fold serial dilutions up to 10 separate concentration points) was added to individual wells from a 10 millimolar stock solution, at a background concentration of 0.10% DMSO and the cells were shaken at 600 rpm for 5 minutes and then were cultured for 24 hours at 37 degrees Celsius. Separately, a custom MSD (MesoScaleDiscovery, L15XA-3) plate for detection of human MK2 was prepared by coating the plate with the commercial AbCam ab247272 reagent in 1× Phosphate Buffered Saline at 40 microlitres per well and incubated at 4 degrees Celsius overnight. The next day, the MSD plate was washed with 150 microlitres of Tween buffered saline, blocked with MSD blocking buffer (3% Blocker A from MSD), and washed again.
The cell plate was centrifuged at 3,200 g for 5 minutes and the supernatant was discarded and 100 microlitres of RIPA lysis buffer (containing proteinase inhibitors, Boston BioProducts BP-115D) was added and the plate was sealed and shaken on ice for 20 minutes. The plate was centrifuged as before and 70 microlitres of sample lysate was added to the MSD plates and they were shaken at room temperature for 1 hour at 600 rpm. The MSD plate was washed 3 times as before and then the primary MK2 detection antibody (Santa Cruz sc-100393) was added at a final concentration of 1 microgram per ml at 25 microlitres per well and shaken at room temperature for 1 hour at 600 rpm.
(§1) After 3 more washes, the secondary detection antibody (SULFO-Tag anti rabbit antibody R32AB-5) was added at a final concentration of 1 microgram per ml at 25 microlitres per well and shaken at room temperature for 1 hour at 600 rpm. After 3 more washes, the 1X MSD (diluted from 5X concentrate with water) reading buffer was added at 150 microlitres per well and read on the MSD instrument Meso Sector S 600.
(§2) The inhibition/degradation curves and DC50 values were plotted and calculated using XL Fit (version v5.3.1.3) using equation 201 and a 4 parameter logistic model whereby fit=(A+((B−A)/(1+((x/C)D))) where A is the Bottom and B is the Top and C is the IC50 and D is the slope and high C is the signal for the DMSO treated cells and Low C is the signal is the signal for the lysis buffer.
Compound `C[C@@H]1CNc2c(sc3ccc4nc(N5CCN(CC6CCC7(CC6)CN(c6ccc(NC8CCC(=O)NC8=O)cc6F)C7)CC5)ccc4c23)C(=O)N1` (stereo partly drawn) [I-20] has a Dmax greater than 75%.
`C[C@@H]1CNc2c(sc3ccc4nc(N5CC[C@H](N(C)C6CC7(CCN(c8ccc9c(c8)n(C)c(=O)n9C8CCC(=O)NC8=O)CC7)C6)C(F)(F)C5)ccc4c23)C(=O)N1` (stereo partly drawn) [I-21] showed a Dmax greater than 75%.
`Cn1c(=O)n(C2CCC(=O)NC2=O)c2ccc(N3CC(CN4CCN(c5ccc(-c6nccc(-c7cc8c([nH]7)C(C)(C)CNC8=O)n6)cc5)CC4)C3)cc21` (stereo not drawn) [I-22] gave a Dmax greater than 75%.
Work on `C[C@@H]1CNc2c(sc3ccc4nc(N5CCN(CC6CCC7(CC6)CN(c6ccc8c(N9CCC(=O)NC9=O)cncc8c6)C7)CC5)ccc4c23)C(=O)N1` [I-23] yielded a Dmax greater than 75%.
Work on `Cn1c(=O)n(C2CCC(=O)NC2=O)c2cccc(OCCN3CCN(c4ccc(-c5nccc(-c6cc7c([nH]6)C6(CC6)CNC7=O)n5)c(F)c4)CC3)c21` (stereo not drawn) [I-24] yielded a Dmax greater than 75%.
In the case of `C[C@@H]1CNc2c(sc3ccc4nc(N5CCN(C6CC7(CCN(c8ccc(NC9CCC(=O)NC9=O)cc8F)CC7)C6)CC5)ccc4c23)C(=O)N1` (stereo partly drawn) [I-25], the Dmax was greater than 75%.

Same assay, conditions: read-out: MK2 MSD SW1353 degradation 24 h GMean External Abs DC50
`C[C@@H]1CNc2c(sc3ccc4nc(N5CCN(CC6CCC7(CC6)CN(c6ccc(NC8CCC(=O)NC8=O)cc6F)C7)CC5)ccc4c23)C(=O)N1` (stereo partly drawn) [I-20] was tested, and the DC50 was 1 to 10 nM.
In the case of `C[C@@H]1CNc2c(sc3ccc4nc(N5CC[C@H](N(C)C6CC7(CCN(c8ccc9c(c8)n(C)c(=O)n9C8CCC(=O)NC8=O)CC7)C6)C(F)(F)C5)ccc4c23)C(=O)N1` (stereo partly drawn) [I-21], the DC50 was less than 1 nM.
`Cn1c(=O)n(C2CCC(=O)NC2=O)c2ccc(N3CC(CN4CCN(c5ccc(-c6nccc(-c7cc8c([nH]7)C(C)(C)CNC8=O)n6)cc5)CC4)C3)cc21` (stereo not drawn) [I-22] showed a DC50 of less than 1 nM.
Compound `C[C@@H]1CNc2c(sc3ccc4nc(N5CCN(CC6CCC7(CC6)CN(c6ccc8c(N9CCC(=O)NC9=O)cncc8c6)C7)CC5)ccc4c23)C(=O)N1` [I-23] has a DC50 of less than 1 nM.
`Cn1c(=O)n(C2CCC(=O)NC2=O)c2cccc(OCCN3CCN(c4ccc(-c5nccc(-c6cc7c([nH]6)C6(CC6)CNC7=O)n5)c(F)c4)CC3)c21` (stereo not drawn) [I-24] showed a DC50 of 1 to 10 nM.
In the case of `C[C@@H]1CNc2c(sc3ccc4nc(N5CCN(C6CC7(CCN(c8ccc(NC9CCC(=O)NC9=O)cc8F)CC7)C6)CC5)ccc4c23)C(=O)N1` (stereo partly drawn) [I-25], the DC50 was 1 to 10 nM.

Each compound was assayed against T1, MK2 (assay: MK2 degradation in human THP-1 monocytic cells (MSD, 24 h)). Conditions: THP-1 cells.
Format: cell-based
Set-up: endogenous in cells
Description: The human monocytic cancer cell line THP-1 (ATCC (TIB-202)) was cultured in 96 well plates (Coming 3894) at a density of 200,000 cells per well in 100 microlitres in complete growth medium of RPMI 1640 (Gibco) pus 10% fetal Bovine Serum (Coming) and Penicillin/Streptomycin (SolarBio) at 37 degrees Celsius and 5% CO2. A serial dilution of each compound (usually 3 to 5 fold serial dilutions up to 10 separate concentration points) was added to individual wells from a 10 millimolar stock solution, at a background concentration of 0.1% DMSO and the cells were shaken at 600 rpm for 5 minutes and then were cultured for 24 hours at 37 degrees Celsius and 5% carbon dioxide. Separately, a custom MSD (MesoScaleDiscovery, L15XA-3) plate for detection of human MK2 was prepared by coating the plate with the commercial AbCarn ab247272 reagent in 1× Phosphate Buffered Saline at 40 microlitres per well and incubated at 4 degrees Celsius overnight. The next day, the MSD plate was washed with 150 microlitres of Tween buffered saline, blocked with MSD blocking buffer (3% BlockerA from MSD), and washed again.
The cell plate was centrifuged at 3,200 g for 5 minutes and the supernatant was discarded and 100 microlitres of RIPA lysis buffer (containing proteinase inhibitors, Boston BioProducts BP-115D) was added and the plate was sealed and shaken on ice for 20 minutes. The plate was centrifuged as before and 70 microlitres of sample lysate was added to the MSD plates and they were shaken at room temperature for I hour at 600 rpm. The MSD plate was washed 3 times as before and then the primary MK2 detection antibody (Santa Cruz sc-100393) was added at a final concentration of 1 microgram per ml at 25 microlitres per well and shaken at room temperature for 1 hour at 600 rpm.
as §1
as §2, with “IC50and” for “IC50 and”
For `C[C@@H]1CNc2c(sc3ccc4nc(N5CCN(CC6CCC7(CC6)CN(c6ccc(NC8CCC(=O)NC8=O)cc6F)C7)CC5)ccc4c23)C(=O)N1` (stereo partly drawn) [I-20], the Dmax was greater than 75%.
In the case of `C[C@@H]1CNc2c(sc3ccc4nc(N5CC[C@H](N(C)C6CC7(CCN(c8ccc9c(c8)n(C)c(=O)n9C8CCC(=O)NC8=O)CC7)C6)C(F)(F)C5)ccc4c23)C(=O)N1` (stereo partly drawn) [I-21], the Dmax was greater than 75%.
`Cn1c(=O)n(C2CCC(=O)NC2=O)c2ccc(N3CC(CN4CCN(c5ccc(-c6nccc(-c7cc8c([nH]7)C(C)(C)CNC8=O)n6)cc5)CC4)C3)cc21` (stereo not drawn) [I-22] showed a Dmax greater than 75%.
`C[C@@H]1CNc2c(sc3ccc4nc(N5CCN(CC6CCC7(CC6)CN(c6ccc8c(N9CCC(=O)NC9=O)cncc8c6)C7)CC5)ccc4c23)C(=O)N1` [I-23] was tested, and the Dmax was greater than 75%.
Work on `Cn1c(=O)n(C2CCC(=O)NC2=O)c2cccc(OCCN3CCN(c4ccc(-c5nccc(-c6cc7c([nH]6)C6(CC6)CNC7=O)n5)c(F)c4)CC3)c21` (stereo not drawn) [I-24] yielded a Dmax greater than 75%.
Compound `C[C@@H]1CNc2c(sc3ccc4nc(N5CCN(C6CC7(CCN(c8ccc(NC9CCC(=O)NC9=O)cc8F)CC7)C6)CC5)ccc4c23)C(=O)N1` (stereo partly drawn) [I-25] has a Dmax greater than 75%.

Same assay, conditions: THP-1 cells, read-out: MK2 MSD THP-1 degradation 24 h GMean External Abs DC50
In the case of `C[C@@H]1CNc2c(sc3ccc4nc(N5CCN(CC6CCC7(CC6)CN(c6ccc(NC8CCC(=O)NC8=O)cc6F)C7)CC5)ccc4c23)C(=O)N1` (stereo partly drawn) [I-20], the DC50 was 1 to 10 nM.
Compound `C[C@@H]1CNc2c(sc3ccc4nc(N5CC[C@H](N(C)C6CC7(CCN(c8ccc9c(c8)n(C)c(=O)n9C8CCC(=O)NC8=O)CC7)C6)C(F)(F)C5)ccc4c23)C(=O)N1` (stereo partly drawn) [I-21] has a DC50 of less than 1 nM.
`Cn1c(=O)n(C2CCC(=O)NC2=O)c2ccc(N3CC(CN4CCN(c5ccc(-c6nccc(-c7cc8c([nH]7)C(C)(C)CNC8=O)n6)cc5)CC4)C3)cc21` (stereo not drawn) [I-22] showed a DC50 of less than 1 nM.
In the case of `C[C@@H]1CNc2c(sc3ccc4nc(N5CCN(CC6CCC7(CC6)CN(c6ccc8c(N9CCC(=O)NC9=O)cncc8c6)C7)CC5)ccc4c23)C(=O)N1` [I-23], the DC50 was less than 1 nM.
`Cn1c(=O)n(C2CCC(=O)NC2=O)c2cccc(OCCN3CCN(c4ccc(-c5nccc(-c6cc7c([nH]6)C6(CC6)CNC7=O)n5)c(F)c4)CC3)c21` (stereo not drawn) [I-24] showed a DC50 of less than 1 nM.
In the case of `C[C@@H]1CNc2c(sc3ccc4nc(N5CCN(C6CC7(CCN(c8ccc(NC9CCC(=O)NC9=O)cc8F)CC7)C6)CC5)ccc4c23)C(=O)N1` (stereo partly drawn) [I-25], the DC50 was less than 1 nM.
